Values quoted from earlier work in PubChem BioAssay AID1259409 (Chemical Carcinogenesis Research Information System (CCRIS), 2018).

Test system: rodent chemically induced tumor inhibition, incidence and multiplicity
Assay: CCRIS tumor inhibitor studies

Row | SMILES | tumour outcome (control, treated, inhibition, significance) (Carcinogen: 3-METHYLCHOLANTHRENE, 56-49-5, Dose [Inhibitor]: 0, 2.9 UMOL IN 0.1 ML ACETONE 1 HR PRIOR TO CARCINOGEN DOSE 2/WK FOR 16 WK (STUDY DURATION: 16 WK), Route [Inhibitor]: DERMAL, Species: MOUSE, Strain/Sex: BALB/FEMALE, Target Tissue: Type of Lesion: SKIN: TUMORS, Dose [Carcinogen]: 1.8 UMOL IN 0.2 ML ACETONE 2/WK FOR 16 WK, Promoter: NONE USED) | tumour outcome (control, treated, inhibition, significance) (Carcinogen: AZOXYMETHANE, 25843-45-2, Dose [Inhibitor]: 0, 2% IN DIET FOR 13 WK BEGINNING 36 WK POST LAST CARCINOGEN DOSE (STUDY DURATION: 49 WK), Route [Inhibitor]: ORAL, Species: RAT, Strain/Sex: F344/MALE, Target Tissue: Type of Lesion: COLON: ADENOCARCINOMA, Dose [Carcinogen]: 12 MG/KG BW IN 0.9% SALINE TWICE, Promoter: CHOLIC ACID, 81-25-4) | tumour outcome (control, treated, inhibition, significance) (Carcinogen: AZOXYMETHANE, 25843-45-2, Dose [Inhibitor]: 0, 2% IN DIET FOR 13 WK BEGINNING 36 WK POST LAST CARCINOGEN DOSE (STUDY DURATION: 49 WK), Route [Inhibitor]: ORAL, Species: RAT, Strain/Sex: F344/MALE, Target Tissue: Type of Lesion: COLON: ADENOMA, Dose [Carcinogen]: 12 MG/KG BW IN 0.9% SALINE TWICE, Promoter: CHOLIC ACID, 81-25-4) | tumour outcome (control, treated, inhibition, significance) (Carcinogen: AZOXYMETHANE, 25843-45-2, Dose [Inhibitor]: 0, 2% IN DIET FOR 13 WK BEGINNING 36 WK POST LAST CARCINOGEN DOSE (STUDY DURATION: 49 WK), Route [Inhibitor]: ORAL, Species: RAT, Strain/Sex: F344/MALE, Target Tissue: Type of Lesion: SMALL INTESTINE: ADENOCARCINOMA, Dose [Carcinogen]: 12 MG/KG BW IN 0.9% SALINE TWICE, Promoter: CHOLIC ACID, 81-25-4) | tumour outcome (control, treated, inhibition, significance) (Carcinogen: AZOXYMETHANE, 25843-45-2, Dose [Inhibitor]: 0, 2% IN DIET FOR 13 WK BEGINNING 36 WK POST LAST CARCINOGEN DOSE (STUDY DURATION: 49 WK), Route [Inhibitor]: ORAL, Species: RAT, Strain/Sex: F344/MALE, Target Tissue: Type of Lesion: SMALL INTESTINE: ADENOMA, Dose [Carcinogen]: 12 MG/KG BW IN 0.9% SALINE TWICE, Promoter: CHOLIC ACID, 81-25-4) | tumour outcome (control, treated, inhibition, significance) (Carcinogen: AZOXYMETHANE, 25843-45-2, Dose [Inhibitor]: 0, 2% IN DIET FOR 34 WK BEGINNING 1 WK POST LAST CARCINOGEN DOSE (STUDY DURATION: 49 WK), Route [Inhibitor]: ORAL, Species: RAT, Strain/Sex: F344/MALE, Target Tissue: Type of Lesion: COLON: ADENOCARCINOMA, Dose [Carcinogen]: 12 MG/KG BW IN 0.9% SALINE TWICE, Promoter: CHOLIC ACID, 81-25-4) | tumour outcome (control, treated, inhibition, significance) (Carcinogen: AZOXYMETHANE, 25843-45-2, Dose [Inhibitor]: 0, 2% IN DIET FOR 34 WK BEGINNING 1 WK POST LAST CARCINOGEN DOSE (STUDY DURATION: 49 WK), Route [Inhibitor]: ORAL, Species: RAT, Strain/Sex: F344/MALE, Target Tissue: Type of Lesion: COLON: ADENOMA, Dose [Carcinogen]: 12 MG/KG BW IN 0.9% SALINE TWICE, Promoter: CHOLIC ACID, 81-25-4) | tumour outcome (control, treated, inhibition, significance) (Carcinogen: AZOXYMETHANE, 25843-45-2, Dose [Inhibitor]: 0, 2% IN DIET FOR 34 WK BEGINNING 1 WK POST LAST CARCINOGEN DOSE (STUDY DURATION: 49 WK), Route [Inhibitor]: ORAL, Species: RAT, Strain/Sex: F344/MALE, Target Tissue: Type of Lesion: SMALL INTESTINE: ADENOCARCINOMA, Dose [Carcinogen]: 12 MG/KG BW IN 0.9% SALINE TWICE, Promoter: CHOLIC ACID, 81-25-4) | tumour outcome (control, treated, inhibition, significance) (Carcinogen: AZOXYMETHANE, 25843-45-2, Dose [Inhibitor]: 0, 2% IN DIET FOR 34 WK BEGINNING 1 WK POST LAST CARCINOGEN DOSE (STUDY DURATION: 49 WK), Route [Inhibitor]: ORAL, Species: RAT, Strain/Sex: F344/MALE, Target Tissue: Type of Lesion: SMALL INTESTINE: ADENOMA, Dose [Carcinogen]: 12 MG/KG BW IN 0.9% SALINE TWICE, Promoter: CHOLIC ACID, 81-25-4) | tumour outcome (control, treated, inhibition, significance) (Carcinogen: N-BUTYL-N-(4-HYDROXYBUTYL)NITROSAMINE, 3817-11-6, Dose [Inhibitor]: 5% DIET DAILY FOR 34 WK STARTING AFTER CARCINOGEN TREATMENT (STUDY DURATION: 38 WK), Route [Inhibitor]: ORAL, Species: RAT, Strain/Sex: F344/MALE, Target Tissue: Type of Lesion: URINARY BLADDER: PAPILLOMA, Dose [Carcinogen]: 0.01% IN DRINKING WATER FOR 4 WK, Promoter: NONE USED) | tumour outcome (control, treated, inhibition, significance) (Carcinogen: N-METHYL-N'-NITRO-N-NITROSOGUANIDINE, 70-25-7, Dose [Inhibitor]: 0, 7.5% IN DIET FOR FIRST 20 WK THEN BASAL DIET FOR DURATION OF STUDY (STUDY DURATION: 40 WK), Route [Inhibitor]: ORAL, Species: RAT, Strain/Sex: WISTAR/MALE, Target Tissue: Type of Lesion: GLANDULAR STOMACH: ADENOCARCINOMA, Dose [Carcinogen]: 100 MG/L IN DRINKING WATER FOR FIRST 20 WK, Promoter: NONE USED) | tumour outcome (control, treated, inhibition, significance) (Carcinogen: N-NITROSOMETHYLBENZYLAMINE, 937-40-6, Dose [Inhibitor]: 0, 20000 PPM IN DIET FOR DURATION OF STUDY BEGINNING 1 WK POST CARCINOGEN TREATMENT (STUDY DURATION: 25 WK), Route [Inhibitor]: ORAL, Species: RAT, Strain/Sex: F344/MALE, Target Tissue: Type of Lesion: ESOPHAGUS: TUMOR, Dose [Carcinogen]: 1 MG/KG 3/WK FOR 5 WK, Promoter: NONE USED) | tumour outcome (control, treated, inhibition, significance) (Carcinogen: N-NITROSOMETHYLBENZYLAMINE, 937-40-6, Dose [Inhibitor]: 0, 20000 PPM IN DIET FOR DURATION OF STUDY BEGINNING 2 WK PRIOR TO CARCINOGEN TREATMENT (STUDY DURATION: 25 WK), Route [Inhibitor]: ORAL, Species: RAT, Strain/Sex: F344/MALE, Target Tissue: Type of Lesion: ESOPHAGUS: TUMOR, Dose [Carcinogen]: 1 MG/KG 3/WK FOR 5 WK, Promoter: NONE USED) | tumour outcome (control, treated, inhibition, significance) (Dose [Inhibitor]: 0, 6.2 MG, 2 INJECTIONS ONCE INTO EACH POLE OF RIGHT KIDNEY ADMINISTERED WITH CARCINOGEN (STUDY DURATION: 109 WK), Route [Inhibitor]: INTRARENAL, Species: RAT, Strain/Sex: F344/NCR/MALE, Target Tissue: Type of Lesion: KIDNEY: TUMOR, Dose [Carcinogen]: 5 MG, 2 INJECTIONS ONCE INTO EACH POLE OF RIGHT KIDNEY, Promoter: NONE USED) | tumour outcome (control, treated, inhibition, significance) (Dose [Inhibitor]: 0, 7.5 UMOL (MG) INJECTED WITH CARCINOGEN INTO THIGH OF BOTH HIND LIMBS (STUDY DURATION: 79 WK), Route [Inhibitor]: INTRAMUSCULAR, Species: RAT, Strain/Sex: F344/MALE, Target Tissue: Type of Lesion: INJECTION SITE: SARCOMA, Dose [Carcinogen]: 2.5 MG PER SITE INJECTED INTO THIGH OF BOTH HIND LIMBS ONCE, Promoter: NONE USED) | tumour outcome (control, treated, inhibition, significance) (Dose [Inhibitor]: 0, 15.5 UMOL (MG) INJECTED WITH CARCINOGEN INTO THIGH OF BOTH HIND LIMBS (STUDY DURATION: 79 WK), Route [Inhibitor]: INTRAMUSCULAR, Species: RAT, Strain/Sex: F344/MALE, Target Tissue: Type of Lesion: INJECTION SITE: SARCOMA, Dose [Carcinogen]: 2.5 MG PER SITE INJECTED INTO THIGH OF BOTH HIND LIMBS ONCE, Promoter: NONE USED) | tumour outcome (control, treated, inhibition, significance) (Dose [Inhibitor]: 0, 30 UMOL (MG) INJECTED WITH CARCINOGEN INTO THIGH OF BOTH HIND LIMBS (STUDY DURATION: 79 WK), Route [Inhibitor]: INTRAMUSCULAR, Species: RAT, Strain/Sex: F344/MALE, Target Tissue: Type of Lesion: INJECTION SITE: SARCOMA, Dose [Carcinogen]: 2.5 MG PER SITE INJECTED INTO THIGH OF BOTH HIND LIMBS ONCE, Promoter: NONE USED) | tumour outcome (control, treated, inhibition, significance) (Dose [Inhibitor]: 0, 60 UMOL (MG) INJECTED WITH CARCINOGEN INTO THIGH OF BOTH HIND LIMBS (STUDY DURATION: 79 WK), Route [Inhibitor]: INTRAMUSCULAR, Species: RAT, Strain/Sex: F344/MALE, Target Tissue: Type of Lesion: INJECTION SITE: SARCOMA, Dose [Carcinogen]: 2.5 MG PER SITE INJECTED INTO THIGH OF BOTH HIND LIMBS ONCE, Promoter: NONE USED) | tumour outcome (control, treated, inhibition, significance) (Dose [Inhibitor]: 0, 120 UMOL (MG) INJECTED INTO NAPE OF NECK (STUDY DURATION: 79 WK), Route [Inhibitor]: SUBCUTANEOUS, Species: RAT, Strain/Sex: F344/MALE, Target Tissue: Type of Lesion: INJECTION SITE: SARCOMA, Dose [Carcinogen]: 2.5 MG PER SITE INJECTED INTO THIGH OF BOTH HIND LIMBS, Promoter: NONE USED) | tumour outcome (control, treated, inhibition, significance) (Dose [Inhibitor]: 0, 120 UMOL (MG) INJECTED WITH CARCINOGEN INTO THIGH OF BOTH HIND LIMBS (STUDY DURATION: 79 WK), Route [Inhibitor]: INTRAMUSCULAR, Species: RAT, Strain/Sex: F344/MALE, Target Tissue: Type of Lesion: INJECTION SITE: SARCOMA, Dose [Carcinogen]: 2.5 MG PER SITE INJECTED INTO THIGH OF BOTH HIND LIMBS, Promoter: NONE USED)
1 | Clc1ccccc1C(c1ccccc1)(c1ccccc1)n1ccnc1 | 100%, 70%, 30%, p<0.05 |  |  |  |  |  |  |  |  |  |  |  |  |  |  |  |  |  |  | 
2 | O=C(O)O |  | 26%, 31%, -19%, not significant | 81%, 89%, -10%, not significant | 23%, 14%, 39%, not significant | 17%, 14%, 18%, not significant | 26%, 18%, 31%, not significant | 81%, 59%, 27%, p<0.05 | 23%, 16%, 30%, not significant | 17%, 7%, 59%, not significant | 33%, 37%, -12%, not significant | 3/20 (15%), 3/19 (16%), -7%, not significant | 15/15 (100%), 14/15 (93%), 7%, not significant | 15/15 (100%), 13/15 (87%), 13%, not significant | 25/40 (63%), 4/20 (20%), 68%, not calculated | 100%, 100%, 0%, not significant | 100%, 95%, 5%, not significant | 100%, 55%, 45%, not calculated | 100%, 60%, 40%, not significant | 100%, 100%, 0%, not significant | 100%, 55%, 45%, not calculated
